The text below walks through data of ChEMBL document CHEMBL1201862, “PubChem BioAssay data set” (2004).

Each structure is given as a SMILES string.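 These data come from cells grown in 96-well plates and exposed to compound for 48 hours at five concentrations. GI50 marks 50% less growth.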 Activity calls are given as the source filed them. Rule as the data show it: active = GI50 up to about 1.1 µM and inactive = higher.

Some test systems named below: COLO 205; CAKI-1; OVCAR-4; UACC-257; MDA-N; HCT-116; 786-0; SN12C; MDA-MB-231; SW-620; HCT-15; BT-549; CCRF-CEM; HOP-62; HL-60; SK-OV-3; UO-31; SNB-75; SR; HCC 2998.
Test in all cases: inhibition of tumour cell growth, NCI panel, 48 h

In the case of `C=C[C@@H]1C[C@]2(C(=O)OC)Cc3nc4ccccc4nc3CC(C(=O)OC)=C2O1`, the GI50 was 35.2 µM (inactive) with COLO 205; > 100 µM (inactive) with CAKI-1; > 100 µM (inactive) with OVCAR-4; 76.7 µM (inactive) in the assay on UACC-257; 46.8 µM (inactive) with MDA-N; > 100 µM (inactive) with HCT-116. Also, the GI50 in the assay with 786-0 was > 100 µM (inactive); in the assay with SN12C, > 100 µM (inactive); with MDA-MB-231, 92.9 µM (inactive); in the assay on SW-620, 58.5 µM (inactive); in the assay with HCT-15, 57.1 µM; in the assay on BT-549, 57.1 µM (inactive). For the same compound, the GI50 is 41.8 µM (inactive) with CCRF-CEM, > 100 µM (inactive) in the assay with HOP-62, 80.5 µM (inactive) in the assay with HL-60 and > 100 µM (inactive) in the assay with SK-OV-3.

Regarding `c1cc(NNc2cccc(-c3nnn[nH]3)c2)cc(-c2nnn[nH]2)c1`, the GI50 with COLO 205, with CAKI-1, with OVCAR-4, with UACC-257, in the assay on UO-31 and in the assay on MDA-N was > 100 µM (inactive) in each case. Moreover, the GI50 in the assay with HCT-116, in the assay with SNB-75, in the assay on 786-0, with SN12C, in the assay with MDA-MB-231 and with SW-620 was > 100 µM (inactive) each time. In addition, the GI50 in the assay on HCT-15 was more than 100 µM; in the assay on BT-549 it was > 100 µM (inactive); in the assay with HOP-62, > 100 µM (inactive); with SK-OV-3 it was > 100 µM (inactive).

With `COC(=O)C1CCC(=O)N1C(c1ccc(OC)cc1)c1cc(OC)c(OC)c(OC)c1` (configuration not stated), the GI50 in the assay with COLO 205 is 0.292 µM (active); in the assay with CAKI-1, 0.313 µM (active); in the assay on UO-31, 1.19 µM (inactive); in the assay on SR, 0.18 µM (active); with MDA-N it was 0.104 µM (active); in the assay with HCT-116 it was 0.324 µM (active). Moreover, the GI50 in the assay with SNB-75 is 0.389 µM (active); in the assay with 786-0 it was 0.507 µM (active); in the assay with SN12C it was 0.531 µM (active); in the assay on MDA-MB-231, 3.24 µM (inactive); in the assay with SW-620 it was 0.384 µM (active); with HCT-15 it was 0.381 µM. The GI50 was 0.311 µM (active) in the assay with CCRF-CEM; 0.378 µM (active) in the assay with HOP-62; 0.249 µM (active) in the assay on HCC 2998; 0.245 µM (active) in the assay on HL-60; 0.968 µM (active) in the assay on SK-OV-3.

Turning to `COc1ccc(NC(=O)CC(=O)N2N=C(N(c3ccccc3)c3ccccc3)CC2c2ccccc2)cc1` (configuration not stated), the GI50 in the assay with COLO 205, in the assay with CAKI-1, with OVCAR-4, with UACC-257, with UO-31 and in the assay on HCT-116 was > 100 µM (inactive) in each case. Moreover, the GI50 is > 100 µM (inactive) with SNB-75; > 100 µM (inactive) in the assay on 786-0; > 100 µM (inactive) in the assay with SN12C; > 100 µM (inactive) in the assay with MDA-MB-231; > 100 µM (inactive) in the assay on SW-620; more than 100 µM with HCT-15. The GI50 in the assay with CCRF-CEM, with HOP-62, in the assay on HCC 2998, in the assay with HL-60 and in the assay with SK-OV-3 was > 100 µM (inactive) throughout.

Regarding `CN(C)CCNc1c([N+](=O)[O-])sc2ccc(Cl)cc12`, the GI50 in the assay with COLO 205 was 8.75 µM (inactive); in the assay with OVCAR-4 it was 12.6 µM (inactive); in the assay on UO-31, 20 µM (inactive); with SR, > 100 µM (inactive); in the assay on SNB-75 it was 14.5 µM (inactive); with 786-0, 12.2 µM (inactive). Moreover, the GI50 with SN12C is 7.66 µM (inactive); in the assay on MDA-MB-231, 17.3 µM (inactive); in the assay on SW-620, 3.77 µM (inactive); with HCT-15, 7.76 µM; in the assay with BT-549, 32.3 µM (inactive); with CCRF-CEM, 4.36 µM (inactive). Besides, the GI50 is 12.2 µM (inactive) in the assay on HOP-62, 15.7 µM (inactive) in the assay with HCC 2998, > 100 µM (inactive) in the assay on HL-60 and 25.5 µM (inactive) in the assay with SK-OV-3.

On to `Cc1ccc2c(=O)cc(Cc3cccs3)[nH]c2n1`, for which the GI50 in the assay on COLO 205, in the assay on CAKI-1, in the assay with OVCAR-4, in the assay with UACC-257, in the assay on UO-31 and in the assay with HCT-116 was > 100 µM (inactive) each time. Besides, the GI50 was 95.5 µM (inactive) in the assay with SNB-75; > 100 µM (inactive) in the assay on 786-0; > 100 µM (inactive) in the assay with SN12C; > 100 µM (inactive) in the assay with MDA-MB-231; > 100 µM (inactive) in the assay on SW-620; more than 100 µM in the assay with HCT-15. Moreover, the GI50 in the assay on BT-549, in the assay with CCRF-CEM, in the assay on HOP-62, in the assay on HL-60 and in the assay on SK-OV-3 was > 100 µM (inactive) throughout.

Regarding `OC(CN(CCCl)CCCl)C(O)C(O)C(O)CN(CCCl)CCCl` (configuration not stated), the GI50 was 84.7 µM (inactive) in the assay on COLO 205; > 100 µM (inactive) in the assay on CAKI-1; > 100 µM (inactive) in the assay with UACC-257; 22.1 µM (inactive) with UO-31; 0.624 µM (active) in the assay with SR; > 100 µM (inactive) with HCT-116. For the same compound, the GI50 in the assay on 786-0 was 91 µM (inactive); with SN12C, 23.2 µM (inactive); in the assay with MDA-MB-231 it was > 100 µM (inactive); in the assay on SW-620, > 100 µM (inactive); in the assay on HCT-15 it was more than 100 µM; with BT-549 it was > 100 µM (inactive). In addition, the GI50 was 37.6 µM (inactive) with CCRF-CEM; > 100 µM (inactive) with HOP-62; > 100 µM (inactive) in the assay with HCC 2998; 5.04 µM (inactive) in the assay with HL-60; > 100 µM (inactive) in the assay on SK-OV-3.

`CSc1c([S+](C)[O-])c2ccccc2n1C` (configuration not stated): the GI50 with COLO 205, with CAKI-1, in the assay with OVCAR-4, in the assay on UACC-257, with UO-31 and with SR was > 100 µM (inactive) in each case. Also, the GI50 was > 100 µM (inactive) in the assay with MDA-N; > 100 µM (inactive) with HCT-116; 10.8 µM (inactive) in the assay with SNB-75; > 100 µM (inactive) with 786-0; > 100 µM (inactive) with SN12C; > 100 µM (inactive) with MDA-MB-231. Also, the GI50 in the assay on SW-620 was > 100 µM (inactive); in the assay on HCT-15 it was more than 100 µM; in the assay on CCRF-CEM, > 100 µM (inactive); in the assay with HOP-62, > 100 µM (inactive); with HCC 2998 it was > 100 µM (inactive); with HL-60, > 100 µM (inactive). For the same compound, in the assay with SK-OV-3, the GI50 was > 100 µM (inactive).

`OCC1NCC(O)C(O)C1O` (configuration not stated): the GI50 in the assay with COLO 205, with CAKI-1, with OVCAR-4, in the assay with UACC-257, in the assay on UO-31 and in the assay on SR was > 100 µM (inactive) each time. Moreover, the GI50 in the assay on MDA-N, in the assay with HCT-116, with SNB-75, with 786-0, with SN12C and with SW-620 was > 100 µM (inactive) throughout. The GI50 in the assay on HCT-15 is more than 100 µM; with BT-549 it was > 100 µM (inactive); with CCRF-CEM, > 100 µM (inactive); with HOP-62, > 100 µM (inactive); in the assay with HCC 2998, > 100 µM (inactive); in the assay with HL-60 it was > 100 µM (inactive). In the assay with SK-OV-3, the GI50 was > 100 µM (inactive).

With `CCOC(=O)C(Cc1ccc2c(c1)CCC2)(Cc1ccc2c(c1)CCC2)C(=O)OCC`, the GI50 in the assay with CAKI-1 was > 100 µM (inactive); with OVCAR-4 it was > 100 µM (inactive); with UACC-257, 34.7 µM (inactive); with UO-31 it was 71.9 µM (inactive); in the assay with SR, 19 µM (inactive); with MDA-N, 46 µM (inactive). Besides, the GI50 with HCT-116 is 31.7 µM (inactive); in the assay with SNB-75, > 100 µM (inactive); with 786-0, 94.2 µM (inactive); in the assay on MDA-MB-231, 47.1 µM (inactive); in the assay with SW-620 it was > 100 µM (inactive); in the assay on HCT-15 it was 61.7 µM. The GI50 is 32.2 µM (inactive) in the assay with CCRF-CEM; > 100 µM (inactive) in the assay on HOP-62; 49 µM (inactive) in the assay with HCC 2998; 31.5 µM (inactive) with HL-60; > 100 µM (inactive) in the assay on SK-OV-3.

Take `CCOC(=O)C(=CNC(=S)c1ccncc1)C(=O)OCC`: the GI50 with COLO 205, in the assay on CAKI-1, with OVCAR-4, in the assay on UACC-257, in the assay with UO-31 and in the assay with SR was > 100 µM (inactive) throughout. For the same compound, the GI50 in the assay with MDA-N is > 100 µM (inactive); in the assay on HCT-116 it was > 100 µM (inactive); with SNB-75 it was 25.6 µM (inactive); in the assay on 786-0 it was > 100 µM (inactive); with SN12C, > 100 µM (inactive); in the assay with MDA-MB-231, > 100 µM (inactive). Besides, the GI50 in the assay on SW-620 is > 100 µM (inactive); in the assay on HCT-15 it was more than 100 µM; in the assay with CCRF-CEM, > 100 µM (inactive); in the assay with HOP-62, > 100 µM (inactive); in the assay with HCC 2998, > 100 µM (inactive); with HL-60 it was > 100 µM (inactive). In the assay on SK-OV-3, the GI50 is > 100 µM (inactive).

Turning to `O=c1[nH]ncc2[nH]c3c(c12)CCCc1ccccc1-3`, the GI50 was 20.5 µM (inactive) in the assay on COLO 205; 35.2 µM (inactive) in the assay with CAKI-1; 44.5 µM (inactive) in the assay with OVCAR-4; 71.8 µM (inactive) in the assay on UACC-257; 43.4 µM (inactive) in the assay on UO-31; 29.6 µM (inactive) in the assay on MDA-N. For the same compound, the GI50 was 27.4 µM (inactive) with HCT-116; 33 µM (inactive) in the assay on 786-0; 63.1 µM (inactive) in the assay on SN12C; 43.2 µM (inactive) in the assay on SW-620; 28.5 µM in the assay with HCT-15; 32.9 µM (inactive) in the assay with BT-549. Besides, the GI50 in the assay on CCRF-CEM was 39.9 µM (inactive); with HOP-62, 67 µM (inactive); with HCC 2998, 27.9 µM (inactive); in the assay on HL-60, 21.8 µM (inactive); in the assay with SK-OV-3, 28.6 µM (inactive).
